Data reported in US20200239530A1, “COMPOUNDS AND METHODS OF MODULATING PROTEIN DEGRADATION” (Vividion Therapeutics, Inc., priority 2017, published 2020).

Legend:
[1] = target: T1, RRP1B Ribosomal RNA processing protein 1 homolog B (Homo sapiens, UniProt Q14684); assay: Cysteine liganding, probe competition; format: binding
T1 construct: Cells were resuspended in cold PBS on ice and sonicated with a probe sonicator to achieve lysis; endogenous in cells
T1 sequence (Q14684 1-758): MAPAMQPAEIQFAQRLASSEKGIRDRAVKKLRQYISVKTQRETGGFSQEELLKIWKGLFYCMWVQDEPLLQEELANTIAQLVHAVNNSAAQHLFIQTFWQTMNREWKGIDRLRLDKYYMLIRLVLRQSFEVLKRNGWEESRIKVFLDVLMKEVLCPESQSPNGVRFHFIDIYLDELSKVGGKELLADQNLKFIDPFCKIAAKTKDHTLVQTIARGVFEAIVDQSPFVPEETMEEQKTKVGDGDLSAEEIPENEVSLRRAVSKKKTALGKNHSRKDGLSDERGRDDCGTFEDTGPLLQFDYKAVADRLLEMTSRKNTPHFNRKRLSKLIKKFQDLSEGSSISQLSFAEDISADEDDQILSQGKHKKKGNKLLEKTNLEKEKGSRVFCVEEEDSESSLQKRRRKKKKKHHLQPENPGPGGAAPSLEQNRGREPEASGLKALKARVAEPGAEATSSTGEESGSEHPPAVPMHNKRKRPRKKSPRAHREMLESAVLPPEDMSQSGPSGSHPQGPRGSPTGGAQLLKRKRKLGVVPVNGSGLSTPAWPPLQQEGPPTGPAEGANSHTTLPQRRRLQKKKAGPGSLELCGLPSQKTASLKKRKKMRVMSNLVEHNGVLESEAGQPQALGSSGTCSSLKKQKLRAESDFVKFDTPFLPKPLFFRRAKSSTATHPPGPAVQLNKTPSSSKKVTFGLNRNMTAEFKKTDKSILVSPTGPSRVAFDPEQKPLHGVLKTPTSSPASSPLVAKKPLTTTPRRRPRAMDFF
Summary of the method: (§1)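 Probe competition in native proteome: 5 mg/ml lysate, compound 1 hr 25° C, then desthiobiotin iodoacetamide (10 mM stock) 1 hr 25° C; acetone ppt, urea/DTT reduction, iodoacetamide alkylation, trypsin, streptavidin pull-down.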

[2] = target: T2, RPN1 Dolichyl-diphosphooligosaccharide--protein glycosy (Homo sapiens, UniProt P04843); assay: Cysteine liganding, probe competition; format: binding
T2 construct: Cells were resuspended in cold PBS on ice and sonicated with a probe sonicator to achieve lysis; endogenous in cells
T2 sequence (P04843 24-607): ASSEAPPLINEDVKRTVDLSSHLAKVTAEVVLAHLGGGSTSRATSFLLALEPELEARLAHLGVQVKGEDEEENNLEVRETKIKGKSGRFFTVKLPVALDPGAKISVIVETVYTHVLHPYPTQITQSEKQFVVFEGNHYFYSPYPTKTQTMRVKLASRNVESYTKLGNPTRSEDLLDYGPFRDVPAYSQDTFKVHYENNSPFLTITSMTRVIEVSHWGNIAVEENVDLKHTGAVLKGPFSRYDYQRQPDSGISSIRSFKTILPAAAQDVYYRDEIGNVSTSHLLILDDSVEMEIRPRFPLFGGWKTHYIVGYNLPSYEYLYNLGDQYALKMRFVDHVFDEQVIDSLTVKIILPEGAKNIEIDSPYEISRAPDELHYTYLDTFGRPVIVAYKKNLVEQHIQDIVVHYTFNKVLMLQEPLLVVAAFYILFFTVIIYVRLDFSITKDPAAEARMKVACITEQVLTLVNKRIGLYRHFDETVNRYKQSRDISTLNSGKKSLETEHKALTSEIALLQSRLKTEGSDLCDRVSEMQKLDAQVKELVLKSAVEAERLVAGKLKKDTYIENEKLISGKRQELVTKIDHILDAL
Summary of the method: as §1

| SMILES | 100 Max ([1]; uniprot Q14684) | 100 ave ([1]; uniprot Q14684) | 500 Max ([1]; uniprot Q14684) | 500 ave ([1]; uniprot Q14684) | 100 Max ([2]; uniprot P04843) | 100 ave ([2]; uniprot P04843) | 500 ave ([2]; uniprot P04843) | 500 Max ([2]; uniprot P04843, in % (unit assumed)) | Liganded ([1]; RRP1B Res# 155, uniprot Q14684) | Liganded ([2]; RPN1 Res# 477, uniprot P04843) |
| --- | --- | --- | --- | --- | --- | --- | --- | --- | --- | --- |
| O=C(CCl)Nc1cc(C(F)(F)F)cc(C(F)(F)F)c1 [KBO3] | 27.08 | 18.31 | 70.79 | 66.05 | 9.24 | −5.035 | 23.85 | 28.71 |  |  |
| COc1ccc2c(c1)CCCN2C(=O)CCl [KB02] |  |  |  |  |  |  |  |  | YES | YES |
